Laboratory results reported in PubChem BioAssay (NCI).
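GI50 = concentration required for 50% inhibition of growth. TGI: concentration producing complete growth inhibition.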

Tests used:
Test in all cases: growth of human tumour cells (NCI), 384-well format
CAKI-1 renal = system: CAKI-1 renal
HCT-116 colon = system: HCT-116 colon
NCI-H460 NSCLC = system: NCI-H460 NSCLC
ACHN renal = system: ACHN renal
OVCAR-8 ovarian = system: OVCAR-8 ovarian
MDA-MB-468 breast = system: MDA-MB-468 breast
UACC-62 melanoma = system: UACC-62 melanoma
SNB-19 CNS = system: SNB-19 CNS
RXF 393 renal = system: RXF 393 renal
KM12 colon = system: KM12 colon
K-562 leukemia = system: K-562 leukemia
HOP-92 NSCLC = system: HOP-92 NSCLC
TK-10 renal = system: TK-10 renal
MALME-3M melanoma = system: MALME-3M melanoma
NCI-H322M lung = system: NCI-H322M lung
NCI-H522 lung = system: NCI-H522 lung
MCF7 breast = system: MCF7 breast
SN12C renal = system: SN12C renal
NCI-H226 lung = system: NCI-H226 lung
786-0 renal = system: 786-0 renal
SK-MEL-2 melanoma = system: SK-MEL-2 melanoma
NCI-H23 lung = system: NCI-H23 lung
HCT-15 colon = system: HCT-15 colon
SW-620 colon = system: SW-620 colon
M14 melanoma = system: M14 melanoma
DU-145 prostate = system: DU-145 prostate
OVCAR-4 ovarian = system: OVCAR-4 ovarian
NCI/ADR-RES ovarian = system: NCI/ADR-RES ovarian
HT29 colon = system: HT29 colon
SF-539 CNS = system: SF-539 CNS
LOX IMVI melanoma = system: LOX IMVI melanoma
IGROV1 ovarian = system: IGROV1 ovarian
A498 renal = system: A498 renal
CCRF-CEM leukemia = system: CCRF-CEM leukemia
SK-OV-3 ovarian = system: SK-OV-3 ovarian
T-47D breast = system: T-47D breast
SR leukemia = system: SR leukemia
SK-MEL-28 melanoma = system: SK-MEL-28 melanoma
UO-31 renal = system: UO-31 renal
RPMI-8226 leukemia = system: RPMI-8226 leukemia
SK-MEL-5 melanoma = system: SK-MEL-5 melanoma
MDA-MB-435 melanoma = system: MDA-MB-435 melanoma
PC-3 prostate = system: PC-3 prostate
OVCAR-5 ovarian = system: OVCAR-5 ovarian
OVCAR-3 ovarian = system: OVCAR-3 ovarian
UACC-257 melanoma = system: UACC-257 melanoma
BT-549 breast = system: BT-549 breast
HCC-2998 colon = system: HCC-2998 colon
MDA-MB-231 breast = system: MDA-MB-231 breast
SF-295 CNS = system: SF-295 CNS
HOP-62 NSCLC = system: HOP-62 NSCLC
SF-268 CNS = system: SF-268 CNS
U251 glioblastoma = system: U251 glioblastoma
COLO 205 colon = system: COLO 205 colon
HL-60(TB) leukemia = system: HL-60(TB) leukemia
MOLT-4 leukemia = system: MOLT-4 leukemia
A549 NSCLC = system: A549 NSCLC

**Q.** With `CCN(c1cc(C#CCN2CCOCC2)cc(C(=O)NCc2c(C)cc(C)[nH]c2=O)c1C)C1CCC(N(C)CCOC)CC1` (centres undefined) as the molecule, how does the GI50 (CAKI-1 renal) read?
**A.** > 100 µM

**Q.** And the TGI (CAKI-1 renal)?
**A.** > 100 µM

**Q.** What about the GI50 (HCT-116 colon) of the same molecule?
**A.** > 100 µM

**Q.** What about the TGI (HCT-116 colon) of the same molecule?
**A.** > 100 µM

**Q.** What about the GI50 (NCI-H460 NSCLC) of the same molecule?
**A.** > 100 µM

**Q.** What about the TGI (NCI-H460 NSCLC) of the same molecule?
**A.** > 100 µM

**Q.** What about the GI50 (ACHN renal) of the same molecule?
**A.** > 100 µM

**Q.** What about the TGI (ACHN renal) of the same molecule?
**A.** > 100 µM

**Q.** And the GI50 (OVCAR-8 ovarian)?
**A.** > 100 µM

**Q.** What about the TGI (OVCAR-8 ovarian) of the same molecule?
**A.** > 100 µM

**Q.** What about the GI50 (MDA-MB-468 breast) of the same molecule?
**A.** 58.4 µM

**Q.** What about the TGI (MDA-MB-468 breast) of the same molecule?
**A.** > 100 µM

**Q.** And the GI50 (UACC-62 melanoma)?
**A.** 51.3 µM

**Q.** What about the TGI (UACC-62 melanoma) of the same molecule?
**A.** > 100 µM

**Q.** And the GI50 (SNB-19 CNS)?
**A.** > 100 µM

**Q.** And the TGI (SNB-19 CNS)?
**A.** > 100 µM

**Q.** What about the GI50 (RXF 393 renal) of the same molecule?
**A.** 3.37 µM

**Q.** And the TGI (RXF 393 renal)?
**A.** > 100 µM

**Q.** What about the GI50 (KM12 colon) of the same molecule?
**A.** > 100 µM

**Q.** What about the TGI (KM12 colon) of the same molecule?
**A.** > 100 µM

**Q.** What about the GI50 (K-562 leukemia) of the same molecule?
**A.** > 100 µM

**Q.** What about the TGI (K-562 leukemia) of the same molecule?
**A.** > 100 µM

**Q.** What about the GI50 (HOP-92 NSCLC) of the same molecule?
**A.** 2.55 µM

**Q.** What about the TGI (HOP-92 NSCLC) of the same molecule?
**A.** 34.7 µM

**Q.** And the GI50 (TK-10 renal)?
**A.** > 100 µM

**Q.** What about the TGI (TK-10 renal) of the same molecule?
**A.** > 100 µM

**Q.** What about the GI50 (MALME-3M melanoma) of the same molecule?
**A.** > 100 µM

**Q.** What about the TGI (MALME-3M melanoma) of the same molecule?
**A.** > 100 µM

**Q.** And the GI50 (NCI-H322M lung)?
**A.** > 100 µM

**Q.** What about the TGI (NCI-H322M lung) of the same molecule?
**A.** > 100 µM

**Q.** What about the GI50 (NCI-H522 lung) of the same molecule?
**A.** 32.8 µM

**Q.** What about the TGI (NCI-H522 lung) of the same molecule?
**A.** > 100 µM

**Q.** And the GI50 (MCF7 breast)?
**A.** > 100 µM

**Q.** And the TGI (MCF7 breast)?
**A.** > 100 µM

**Q.** And the GI50 (SN12C renal)?
**A.** > 100 µM

**Q.** And the TGI (SN12C renal)?
**A.** > 100 µM

**Q.** And the GI50 (NCI-H226 lung)?
**A.** 55.9 µM

**Q.** What about the TGI (NCI-H226 lung) of the same molecule?
**A.** > 100 µM

**Q.** And the GI50 ([…]-0 renal)?
**A.** > 100 µM

**Q.** What about the TGI (786-0 renal) of the same molecule?
**A.** > 100 µM

**Q.** And the GI50 (SK-MEL-2 melanoma)?
**A.** 72.9 µM

**Q.** What about the TGI (SK-MEL-2 melanoma) of the same molecule?
**A.** > 100 µM

**Q.** What about the GI50 (NCI-H23 lung) of the same molecule?
**A.** > 100 µM

**Q.** What about the TGI (NCI-H23 lung) of the same molecule?
**A.** > 100 µM

**Q.** And the GI50 (HCT-15 colon)?
**A.** > 100 µM

**Q.** And the TGI (HCT-15 colon)?
**A.** > 100 µM

**Q.** What about the GI50 (SW-620 colon) of the same molecule?
**A.** > 100 µM

**Q.** And the TGI (SW-620 colon)?
**A.** > 100 µM

**Q.** What about the GI50 (M14 melanoma) of the same molecule?
**A.** > 100 µM

**Q.** And the TGI (M14 melanoma)?
**A.** > 100 µM

**Q.** And the GI50 (DU-145 prostate)?
**A.** > 100 µM

**Q.** And the TGI (DU-145 prostate)?
**A.** > 100 µM

**Q.** What about the GI50 (OVCAR-4 ovarian) of the same molecule?
**A.** 51.4 µM

**Q.** What about the TGI (OVCAR-4 ovarian) of the same molecule?
**A.** > 100 µM

**Q.** What about the GI50 (NCI/ADR-RES ovarian) of the same molecule?
**A.** > 100 µM

**Q.** And the TGI (NCI/ADR-RES ovarian)?
**A.** > 100 µM

**Q.** And the GI50 (HT29 colon)?
**A.** > 100 µM

**Q.** What about the TGI (HT29 colon) of the same molecule?
**A.** > 100 µM

**Q.** What about the GI50 (SF-539 CNS) of the same molecule?
**A.** > 100 µM

**Q.** And the TGI (SF-539 CNS)?
**A.** > 100 µM

**Q.** What about the GI50 (LOX IMVI melanoma) of the same molecule?
**A.** > 100 µM

**Q.** What about the TGI (LOX IMVI melanoma) of the same molecule?
**A.** > 100 µM

**Q.** What about the GI50 (IGROV1 ovarian) of the same molecule?
**A.** > 100 µM

**Q.** What about the TGI (IGROV1 ovarian) of the same molecule?
**A.** > 100 µM

**Q.** What about the GI50 (A498 renal) of the same molecule?
**A.** 91.1 µM

**Q.** What about the TGI (A498 renal) of the same molecule?
**A.** > 100 µM

**Q.** And the GI50 (CCRF-CEM leukemia)?
**A.** 4.63 µM

**Q.** And the TGI (CCRF-CEM leukemia)?
**A.** 21.4 µM

**Q.** And the GI50 (SK-OV-3 ovarian)?
**A.** > 100 µM

**Q.** What about the TGI (SK-OV-3 ovarian) of the same molecule?
**A.** > 100 µM

**Q.** What about the GI50 (T-47D breast) of the same molecule?
**A.** > 100 µM

**Q.** What about the TGI (T-47D breast) of the same molecule?
**A.** > 100 µM

**Q.** And the GI50 (SR leukemia)?
**A.** 82.8 µM

**Q.** And the TGI (SR leukemia)?
**A.** > 100 µM

**Q.** And the GI50 (SK-MEL-28 melanoma)?
**A.** > 100 µM

**Q.** What about the TGI (SK-MEL-28 melanoma) of the same molecule?
**A.** > 100 µM

**Q.** And the GI50 (UO-31 renal)?
**A.** > 100 µM

**Q.** What about the TGI (UO-31 renal) of the same molecule?
**A.** > 100 µM

**Q.** And the GI50 (RPMI-8226 leukemia)?
**A.** 0.0254 µM

**Q.** And the TGI (RPMI-8226 leukemia)?
**A.** 0.193 µM

**Q.** What about the GI50 (SK-MEL-5 melanoma) of the same molecule?
**A.** > 100 µM

**Q.** And the TGI (SK-MEL-5 melanoma)?
**A.** > 100 µM

**Q.** What about the GI50 (MDA-MB-435 melanoma) of the same molecule?
**A.** > 100 µM

**Q.** And the TGI (MDA-MB-435 melanoma)?
**A.** > 100 µM

**Q.** And the GI50 (PC-3 prostate)?
**A.** > 100 µM

**Q.** And the TGI (PC-3 prostate)?
**A.** > 100 µM

**Q.** And the GI50 (OVCAR-5 ovarian)?
**A.** > 100 µM

**Q.** And the TGI (OVCAR-5 ovarian)?
**A.** > 100 µM

**Q.** And the GI50 (OVCAR-3 ovarian)?
**A.** 40.6 µM

**Q.** What about the TGI (OVCAR-3 ovarian) of the same molecule?
**A.** > 100 µM

**Q.** What about the GI50 (UACC-257 melanoma) of the same molecule?
**A.** > 100 µM

**Q.** And the TGI (UACC-257 melanoma)?
**A.** > 100 µM

**Q.** What about the GI50 (BT-549 breast) of the same molecule?
**A.** > 100 µM

**Q.** And the TGI (BT-549 breast)?
**A.** > 100 µM

**Q.** What about the GI50 (HCC-2998 colon) of the same molecule?
**A.** 8.42 µM

**Q.** And the TGI (HCC-2998 colon)?
**A.** 92.5 µM

**Q.** And the GI50 (MDA-MB-231 breast)?
**A.** 24.1 µM

**Q.** What about the TGI (MDA-MB-231 breast) of the same molecule?
**A.** > 100 µM

**Q.** And the GI50 (SF-295 CNS)?
**A.** > 100 µM

**Q.** What about the TGI (SF-295 CNS) of the same molecule?
**A.** > 100 µM

**Q.** And the GI50 (HOP-62 NSCLC)?
**A.** 67.2 µM

**Q.** And the TGI (HOP-62 NSCLC)?
**A.** > 100 µM

**Q.** And the GI50 (SF-268 CNS)?
**A.** > 100 µM

**Q.** What about the TGI (SF-268 CNS) of the same molecule?
**A.** > 100 µM

**Q.** And the GI50 (U251 glioblastoma)?
**A.** > 100 µM

**Q.** And the TGI (U251 glioblastoma)?
**A.** > 100 µM

**Q.** What about the GI50 (COLO 205 colon) of the same molecule?
**A.** > 100 µM

**Q.** And the TGI (COLO 205 colon)?
**A.** > 100 µM

**Q.** And the GI50 (HL-60(TB) leukemia)?
**A.** > 100 µM

**Q.** What about the TGI (HL-60(TB) leukemia) of the same molecule?
**A.** > 100 µM

**Q.** And the GI50 (MOLT-4 leukemia)?
**A.** 1.45 µM

**Q.** And the TGI (MOLT-4 leukemia)?
**A.** 3.55 µM

**Q.** What about the GI50 (A549 NSCLC) of the same molecule?
**A.** > 100 µM

**Q.** And the TGI (A549 NSCLC)?
**A.** > 100 µM
